According to patent US20020037864A1, “2'-Propionate clarithromycin dodecyl sulfate and its preparation and pharmaceutical composition containing the same” (priority 2000, published 2002):
Converted amounts (≈) assume the structure as drawn. Where a name gives a salt, the structure may show the parent alone.

What was measured:
mice and rat = details: orally administrated to mice and rat; cited from earlier work
[1] = test system: Streptococcus herbarum, Streptococcus haemolyticus, Staphylococcus aureus, Enterococcus faecalis, Staphylococcus epidermidis, Listeria monocytogenes, and ATCC …; test: Antibacterial activity in vitro comparison assay, agar dilution method (NCCLS); format: cell-based; details: for MIC50 / MIC90: agar dilution, panel of test strains
Protocol: The primary antibacterial activity in vitro comparison assay between compound (I) (named CES hereafter) and clarithromycin are performed by No. 1 Hospital of Zhejiang Medical University. The agar dilution method, according to the method recognized by NCCLS (“National clinical analysis criterion protocol” (2nd edition), Ye Yingwu and Wang Yusan ed., p562, Southeast University Press), is taken in the following pharmaceutical sensitivity tests against Streptococcus herbarum, Streptococcus haemolyticus, Staphylococcus aureus, Enterococcus faecalis, Staphylococcus epidermidis, Listeria monocytogenes, and ATCC 25923.

mice = test: Maximal tolerance test; format: in vivo
Protocol: Acute toxicity animal trial to compound (I) of the present invention is carried out by using 20 KM mice (10 males) weighted 18-22 g. […] Subsequently, the maximal tolerance dose to mice is greater than 8 g/kg as maximal tolerance test determined. […] The mice restored gradually 3 days after administration of compound (I).

[2] = Solubility (physical & chemical property); format: physicochemical
KM mice = test: Acute toxicity animal trial, oral administration; format: in vivo; details: mice after administration
[3] = Acute toxicity animal trial, oral administration; format: in vivo; details: both sexes, mouse, in vivo, po; orally administrated to KM mice
[4] = pH value of aqueous mixture (Chinese Pharmacopoeia 2000, Annex VI H); format: physicochemical; details: 0.4 g added into 10 ml water
Protocol: The pH value of compound (I) of present invention is 5-7 as pH value analyzer (Model PHS-3C, Shanghai leici equipment factory) determined according to the method described in ANNEX VIH (on the measurement of pH value) to Chinese Pharmacopoeia (2000 edition), wherein compound (I) of present invention 0.4 g is added into 10 ml water and stirring extensively.

In the case of CC[C@H]1OC(=O)[C@H](C)[C@@H](O[C@H]2C[C@@](C)(OC)[C@@H](O)[C@H](C)O2)[C@H](C)[C@@H](O[C@@H]2O[C@H](C)C[C@H](N(C)C)[C@H]2O)[C@](C)(OC)C[C@@H](C)C(=O)[C@H](C)[C@@H](O)[C@]1(C)O [clarithromycin], the LD50 (mice and rat) is given as 2700 to 3500 mg/kg, the MIC50 [1] is given as 0.25 µg/mL (≈ 0.334 µM) and the MIC90 [1] is given as “≧128 μg/ml”.
With CCC(=O)OC1C(O[C@@H]2C(C)[C@H](OC3CC(C)(OC)C(O)C(C)O3)[C@@H](C)C(=O)O[C@H](CC)[C@@](C)(O)[C@H](O)C(C)C(=O)[C@H](C)C[C@@]2(C)OC)OC(C)CC1N(C)C (some centres unmarked) [compound (I), 2′-propionate clarithromycin dodecyl sulfate] the MIC50 [1] was 0.25 µg/mL, the MIC90 [1] was “≧128 μg/ml” and the “antibacterial activity relative to clarithromycin” value ([1]; in vitro comparison) was “comparable to that of clarithromycin”. The maximal tolerance dose (mice) was “greater than 8 g/kg”, the “solubility in acetone, ethanol, methanol and chloroform” value [2] was “freely soluble” and the solubility in water [2] was “almost insoluble”. The death (KM mice) was “no death was observed”, the signs after administration (KM mice) was “furriery flab, drowsiness, spiritless and reduced movement” and the “time to gradual restoration” value (KM mice) was 3 days. The LD50 [3] was greater than 7500 mg/kg and the pH value [4] was 5-7.
